Data: ChEMBL document CHEMBL1123898, “Antitumor imidazotetrazines. 14. Synthesis and antitumor activity of 6- and 8-substituted imidazo[5,1-d]-1,2,3,5-tetrazinones and 8-substituted pyrazolo[5,1-d]-1,2,3,5-tetrazinones” (1987)

Key:
[1] = system: L1210; experiment: Antitumor activity was assessed against L1210 tumors in B6D2F1 mouse by inoculation of 10e5 tumor cells through ip route and mean death of animals (treated/control) was reported at 40 mg/kg peroral dose; type: functional; conditions: route oral
[2] = Antitumor activity was assessed against TLX5 tumors in CBA/CA mouse by inoculation of 2 x 10e5 tumor cells through subcutaneous route and mean death of animals (treated/control) was reported at 5 mg/kg dose; type: functional
[3] = system: L1210; experiment: Antitumor activity was assessed against L1210 tumors in B6D2F1 mouse by inoculation of 10e5 tumor cells through intraperitoneal route and number of Survivors to duration was reported at 20 mg/kg peroral dose; 10/10; conditions: route oral
[4] = Antitumor activity was assessed against TLX5 tumors in CBA/CA mouse by inoculation of 2 x 10e5 tumor cells through subcutaneous route and number of Survivors to duration was reported at 20 mg/kg iv dose; 1/5; type: functional
[5] = system: L1210; experiment: Antitumor activity was assessed against L1210 tumors in B6D2F1 mouse by inoculation of 10e5 tumor cells through intraperitoneal route and number of Survivors to duration was reported at 40 mg/kg peroral dose; 2/10; conditions: route oral
[6] = Antitumor activity was assessed against TLX5 tumors in CBA/CA mouse by inoculation of 2 x 10e5 tumor cells through subcutaneous route and mean death of animals (treated/control) was reported at 80 mg/kg iv dose; type: functional
[7] = Antitumor activity was assessed against TLX5 tumors in CBA/CA mouse by inoculation of 2 x 10e5 tumor cells through subcutaneous route and mean death of animals (treated/control) was reported at 10 mg/kg iv dose; type: functional
[8] = Antitumor activity was assessed against TLX5 tumors in CBA/CA mouse by inoculation of 2 x 10e5 tumor cells through subcutaneous route and mean death of animals (treated/control) was reported at 20 mg/kg dose; type: functional
[9] = Antitumor activity was assessed against TLX5 tumors in CBA/CA mouse by inoculation of 2 x 10e5 tumor cells through subcutaneous route and number of Survivors to duration was reported at 40 mg/kg iv dose; 5/5; type: functional
[10] = system: L1210; experiment: Antitumor activity was assessed against L1210 tumors in B6D2F1 mouse by inoculation of 10e5 tumor cells through ip route and mean death of animals (treated/control) was reported at 20 mg/kg peroral dose; type: functional; conditions: route oral
[11] = Antitumor activity was assessed against TLX5 tumors in CBA/CA mouse by inoculation of 2 x 10e5 tumor cells through subcutaneous route and mean death of animals (treated/control) was reported at 40 mg/kg iv dose; type: functional
[12] = system: L1210; experiment: Antitumor activity was assessed against L1210 tumors in B6D2F1 mouse by inoculation of 10e5 tumor cells through intravenous route and number of Survivors to duration was reported at 10 mg/kg peroral dose; 2/10; type: functional; conditions: route oral
[13] = system: L1210; experiment: Antitumor activity was assessed against L1210 tumors in B6D2F1 mouse by inoculation of 10e5 tumor cells through ip route and mean death of animals (treated/control) was reported at 10 mg/kg peroral dose; type: functional; conditions: route oral
[14] = system: L1210; experiment: Antitumor activity was assessed against L1210 tumors in B6D2F1 mouse by inoculation of 10e5 tumor cells through intravenous route and mean death of animals (treated/control) was reported at 100 mg/kg peroral dose; type: functional; conditions: route oral
[15] = system: L1210; experiment: Antitumor activity was assessed against L1210 tumors in B6D2F1 mouse by inoculation of 10e5 tumor cells through intravenous route and mean death of animals (treated/control) was reported at 50 mg/kg peroral dose; type: functional; conditions: route oral
[16] = system: L1210; experiment: Antitumor activity was assessed against L1210 tumors in B6D2F1 mouse by inoculation of 10e5 tumor cells through intravenous route and mean death of animals (treated/control) was reported at 200 mg/kg peroral dose; type: functional; conditions: route oral
[17] = Antitumor activity was assessed against TLX5 tumors in CBA/CA mouse by inoculation of 2 x 10e5 tumor cells through subcutaneous route and mean death of animals (treated/control) was reported at 20 mg/kg ip dose; type: functional
[18] = Antitumor activity was assessed against TLX5 tumors in CBA/CA mouse by inoculation of 2 x 10e5 tumor cells through subcutaneous route and mean death of animals (treated/control) was reported at 10 mg/kg ip dose; type: functional
[19] = Antitumor activity was assessed against TLX5 tumors in CBA/CA mouse by inoculation of 2 x 10e5 tumor cells through subcutaneous route and mean death of animals (treated/control) was reported at 40 mg/kg dose; type: functional
[20] = Antitumor activity was assessed against TLX5 tumors in CBA/CA mouse by inoculation of 2 x 10e5 tumor cells through subcutaneous route and mean death of animals (treated/control) was reported at 160 mg/kg dose; type: functional
[21] = Antitumor activity was assessed against TLX5 tumors in CBA/CA mouse by inoculation of 2 x 10e5 tumor cells through subcutaneous route and mean death of animals (treated/control) was reported at 80 mg/kg dose; type: functional
[22] = Antitumor activity was assessed against TLX5 tumors in CBA/CA mouse by inoculation of 2 x 10e5 tumor cells through sc route and mean death of animals (treated/control) was reported at 160 mg/kg dose; type: functional; conditions: route subcutaneous
[23] = Antitumor activity was assessed against TLX5 tumors in CBA/CA mouse by inoculation of 2 x 10e5 tumor cells through sc route and mean death of animals (treated/control) was reported at 80 mg/kg dose; type: functional; conditions: route subcutaneous
[24] = Antitumor activity was assessed against TLX5 tumors in CBA/CA mouse by inoculation of 2 x 10e5 tumor cells through sc route and mean death of animals (treated/control) was reported at 20 mg/kg dose; type: functional; conditions: route subcutaneous
[25] = Antitumor activity was assessed against TLX5 tumors in CBA/CA mouse by inoculation of 2 x 10e5 tumor cells through sc route and mean death of animals (treated/control) was reported at 320 mg/kg dose; type: functional; conditions: route subcutaneous
[26] = system: L1210; experiment: Antitumor activity was assessed against L1210 tumors in B6D2F1 mouse by inoculation of 10e5 tumor cells through iv route and mean death of animals (treated/control) was reported at 200 mg/kg po dose; type: functional
[27] = system: L1210; experiment: Antitumor activity was assessed against L1210 tumors in B6D2F1 mouse by inoculation of 10e5 tumor cells through iv route and mean death of animals (treated/control) was reported at 100 mg/kg po dose; type: functional
[28] = system: L1210; experiment: Antitumor activity was assessed against L1210 tumors in B6D2F1 mouse by inoculation of 10e5 tumor cells through iv route and mean death of animals (treated/control) was reported at 50 mg/kg po dose; type: functional
[29] = system: L1210; experiment: Antitumor activity was assessed against L1210 tumors in B6D2F1 mouse by inoculation of 10e5 tumor cells through iv route and mean death of animals (treated/control) was reported at 40 mg/kg po dose; type: functional
[30] = system: L1210; experiment: Antitumor activity was assessed against L1210 tumors in B6D2F1 mouse by inoculation of 10e5 tumor cells through iv route and mean death of animals (treated/control) was reported at 10 mg/kg po dose; type: functional
[31] = system: L1210; experiment: Antitumor activity was assessed against L1210 tumors in B6D2F1 mouse by inoculation of 10e5 tumor cells through iv route and mean death of animals (treated/control) was reported at 20 mg/kg po dose; type: functional

With CNC(=O)c1ncn2c(=O)n(CCCl)nnc12 the T/C [1] was >215%, the T/C [2] was 104% and the Survivors [3] was 10. The Survivors [4] was 1, the Survivors [5] was 2 and the T/C [6] was 72%. The T/C [7] was 133%, the T/C [8] was >254% and the Survivors [9] was 5. The T/C [10] was >453%, the T/C [11] was >555% and the Survivors [12] was 2. For the same compound, the T/C [13] was >192%.

Work on NC(=O)c1nc(Cc2ccccc2)n2c(=O)n(CCCl)nnc12 yielded a T/C [14] of 114%, a T/C [15] of 105% and a T/C [16] of 127%.

N#Cc1ncn2c(=O)n(CCCl)nnc12 showed a T/C [17] of 102%, a T/C [18] of 96% and a T/C [19] of 102%. The T/C [20] was 80% and the T/C [21] was 104%.

For O=c1n(CCCl)nnc2c([N+](=O)[O-])ncn12, the T/C [14] was 98%, the T/C [15] was 98% and the T/C [16] was 98%.

COc1ccc(CNS(=O)(=O)c2ncn3c(=O)n(CCCl)nnc23)cc1 showed a T/C [22] of 123%, a T/C [23] of 151% and a T/C [24] of 113%. The T/C [25] was 109%.

With CC(C)c1nc(C(N)=O)c2nnn(CCCl)c(=O)n12 the T/C [26] was 137%, the T/C [27] was 104% and the T/C [28] was 100%.

In the case of NC(=O)c1nc(C2CCCCC2)n2c(=O)n(CCCl)nnc12, the T/C [14] is reported as 86%, the T/C [15] is reported as 94% and the T/C [16] is reported as 90%.

For CCc1nc(C(N)=O)c2nnn(CCCl)c(=O)n12, the T/C [29] was 212%, the T/C [30] was 105% and the T/C [31] was 145%.
